Experimental data: US10450297B2, “Sulfonyl amide derivatives for the treatment of abnormal cell growth” (Pfizer, Inc., priority 2007, dated 2019)

Molecular target: FAK kinase (catalytic construct FAK(410-689)) (Homo sapiens (Human), UniProt Q05397)
Assay: FAKcd kinase ELISA (inhibition of poly-glu-tyr phosphorylation by FAK(410-689))
Type: biochemical
Details: 50 μM final ATP

Chain of FAK kinase (catalytic construct FAK(410-689)) (Q05397 410-689): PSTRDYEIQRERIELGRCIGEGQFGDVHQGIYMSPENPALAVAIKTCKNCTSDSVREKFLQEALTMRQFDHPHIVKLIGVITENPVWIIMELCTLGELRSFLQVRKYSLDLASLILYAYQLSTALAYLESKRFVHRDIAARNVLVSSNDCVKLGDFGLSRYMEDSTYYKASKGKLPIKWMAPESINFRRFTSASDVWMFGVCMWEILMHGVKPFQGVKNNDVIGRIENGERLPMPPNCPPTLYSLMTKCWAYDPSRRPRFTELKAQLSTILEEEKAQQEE

Structure (SMILES) | IC50
CN(c1ncccc1CNc1nc(Nc2cccc(CNS(=O)(=O)C(F)(F)F)c2)ncc1C(F)(F)F)S(C)(=O)=O [Compound 303, 1,1,1-trifluoro-N-[3-({4-[({2-[methyl(methylsulfonyl)amino]pyridin-3-yl}methyl)amino]-5-(trifluoromethyl)pyrimidin-2-yl}amino)benzyl]methanesulfonamide] | 0.727 nM
COc1ccc(C(N)=O)cc1Nc1ncc(C(F)(F)F)c(NCc2cccnc2N(C)S(C)(=O)=O)n1 [Compound 304, 4-methoxy-3-({4-[({2-[methyl(methylsulfonyl)amino]pyridin-3-yl}methyl)amino]-5-(trifluoromethyl)pyrimidin-2-yl}amino)benzamide] | 0.777 nM
COc1ccc(C(N)=O)cc1Nc1ncc(C(F)(F)F)c(NCc2ccc(C)nc2N(C)S(C)(=O)=O)n1 [Compound 305, 4-methoxy-3-({4-[({6-methyl-2-[methyl(methylsulfonyl)-amino]pyridin-3-yl}methyl)amino]-5-(trifluoromethyl)pyrimidin-2-yl}amino)benzamide] | 0.646 nM
COc1ccc(C(N)=O)cc1Nc1ncc(C(F)(F)F)c(NCc2ncccc2N(C)S(C)(=O)=O)n1 [Compound 306, 4-methoxy-3-({4-[({3-[methyl(methylsulfonyl)amino]pyridin-2-yl}methyl)amino]-5-(trifluoromethyl)pyrimidin-2-yl}amino)benzamide] | 0.696 nM
COc1ccc(C(N)=O)cc1Nc1ncc(C(F)(F)F)c(NCc2nccnc2N(C)S(C)(=O)=O)n1 [Compound 307, 4-methoxy-3-({4-[({3-[methyl(methylsulfonyl)amino)pyrazin-2-yl}methyl)amino]-5-(trifluoromethyl)pyrimidin-2-yl}amino)benzamide] | 1.11 nM
Cc1ccc(C(N)=O)cc1Nc1ncc(C(F)(F)F)c(NCc2nccnc2N(C)S(C)(=O)=O)n1 [Compound 309, 4-methyl-3-({4-[({3-[methyl(methylsulfonyl)amino]pyrazin-2-yl}methyl)amino]-5-(trifluoromethyl)pyrimidin-2-yl}amino)benzamide] | 3.51 nM
CC(=O)c1ccc(Nc2ncc(C(F)(F)F)c(NCc3cccnc3N(C)S(C)(=O)=O)n2)cc1 [Compound 311, N-{3-[({2-[(4-acetylphenyl)amino]-5-(trifluoromethyl)pyrimidin-4-yl}amino)methyl]pyridin-2-yl}-N-methylmethane-sulfonamide] | 1 nM
CC(=O)c1cccc(Nc2ncc(C(F)(F)F)c(NCc3cccnc3N(C)S(C)(=O)=O)n2)c1 [Compound 312, N-{3-[({2-[(3-acetylphenyl)amino]-5-(trifluoromethyl)pyrimidin-4-yl}amino)methyl]pyridin-2-yl}-N-methylmethane-sulfonamide] | 1.26 nM
CN(c1ncccc1CNc1nc(Nc2ccc(-c3nnn[nH]3)cc2)ncc1C(F)(F)F)S(C)(=O)=O [Compound 314, N-methyl-N-[3-({[2-{[4-(1H-tetrazol-5-yl)phenyl]amino}-5-(trifluoromethyl)pyrimidin-4-yl]amino}methyl)pyridin-2-yl]methanesulfonamide] | < 0.595 nM
COC(=O)c1ccc(Nc2ncc(C(F)(F)F)c(NCc3cccc(N(C(F)F)S(C)(=O)=O)c3)n2)cc1 [Compound 321, 4-{[4-({3-[(difluoromethyl)(methyl-sulfonyl)amino]benzyl}amino)-5-(trifluoromethyl)pyrimidin-2-yl]amino}benzoate] | 119 nM
CN(c1ncccc1CNc1nc(Nc2ccc(C(C)(C)O)cc2)ncc1C(F)(F)F)S(C)(=O)=O [Compound 323, N-[3-({[2-{[4-(1-hydroxy-1-methylethyl)phenyl]amino}-5-(trifluoromethyl)pyrimidin-4-yl]amino}methyl)pyridin-2-yl]-N-methylmethane-sulfonamide] | 1.5 nM
CN(c1cccnc1CNc1nc(Nc2ccc(C(C)(C)O)cc2)ncc1C(F)(F)F)S(C)(=O)=O [Compound 325, N-[2-({[2-{[4-(1-hydroxy-1-methylethyl)phenyl]amino}-5-(trifluoromethyl)pyrimidin-4-yl)amino}methyl)pyridin-3-yl]-N-methylmethane-sulfonamide] | 2.66 nM
